Assay results from patent US20120283280A1, “IMIDAZOTETRAZINONE-BASED COMBI-MOLECULES” (priority 2011, published 2012).
“Also recorded” adds a separate entry of the source.

Key:
[1] = system: DU145 cell line; experiment: Mouse xenograft study (DU145); settings: for antitumor activity: DU145 xenograft, 100 mg/kg i.p. every other day, 31 days after treatment
[2] = Dose finding and comparative toxicity study in mice; type: in vivo; set-up: key to Vital Sign, Day 8 / Vital Sign, Day 10 / Vital Sign, Day 16 / Vital Sign, Day 1 / Vital Sign, Day 3 / Vital Sign, Day 6: Normal (i.e. No sign of Toxicity); BCS = 2: BCS (Body Condition Score) = 2 indicates that mice are underconditioned (observable signs include segmentation of the vertebral column, palpability of the dorsal pelvic bones); settings: for Vital Sign, Day 1 / Vital Sign, Day 3 / Vital Sign, Day 6 / Vital Sign, Day 8 / Vital Sign, Day 10 / Vital Sign, Day 16: CD-1 mice (n = 6), 100 mg/kg once every other day
Excerpt: The results are further illustrated hereinbelow in Table 4.

[3] = system: LNCaP-ErbB2; experiment: Growth inhibition assay (SRB), LNCaP-ErbB2; settings: 144 h, read-out: IC50 (x ± SD)
Description: (§1) Cell Culture: The human prostate cancer cell line DU145 was obtained from the American Type Culture Collection (Manassas, Va.)). The androgen-sensitive prostate cancer cell lines LNCaP-FGC, LNCaP-EGFR and LNCaP-erbB2 (stably transfected with EGFR erbB2 gene respectively) were generous gifts from Dr. Moulay Aloui-Jamali (Jewish General Hospital, Montreal, Quebec, Canada). […] The cultures were maintained in logarithmic growth by harvesting with a trypsin-EDTA solution containing 0.5 mg/mL trypsin and 0.2 mg/mL EDTA and replating before confluence. In all assays, the cells were plated over a period of time ranging from 24-48 h prior to drug administration.

[4] = system: LNCaP-WT; experiment: Growth inhibition assay (SRB), LNCaP-WT; settings: 144 h, read-out: IC50 (x ± SD)
Description: as §1

[5] = system: DU145 cells; experiment: Alkaline comet assay for quantization of DNA damage; type: cell-based, human
Description: Alkaline Comet Assay for Quantization of DNA Damage: A modified alkaline comet assay technique was used for quantization of DNA damage induced in DU145 cells. The cells were exposed to a dose range of the drugs (JDF12, JDF04R, or MTZ) over a period of 2 h and harvested with trypsin-EDTA. The cells were subsequently collected by centrifugation and resuspended in PBS. The resulting cell suspensions were diluted to 3×10^5 cell/mL and mixed with agarose (0.75%) in PBS at 37° C. in a 1:9 dilution. The gels were cast on Gelband strips (Mandel Scientific, Guelph, Ontario, Canada) using gel casting chambers and then immediately placed into a lysis buffer (2.5 M NaCl, 0.1 M tetrasodium EDTA, 10 mM Trisbase, 1% (v/v) N-lauryl sarcosine, 10% (v/v) DMSO, and 1% (v/v) Triton X-100). After being kept overnight at 4° C., the gels were gently rinsed with distilled water and immersed in a second lysis buffer (2.5 M NaCl, 0.1 M tetrasodium EDTA, 10 mM Tris base) containing 1 mg/mL proteinase K for 60 min at 37° C. The cells were subsequently rinsed with distilled water, incubated in alkaline electrophoresis buffer for 30 min at 37° C. and electrophoresed at 400 mA for 20 min. The gels were then rinsed with distilled water and placed into 1 M ammonium acetate for 30 min. The gels were subsequently soaked in 100% ethanol for 2 h, dried overnight and stained with SYBR Gold (1:10000 dilution of stock supplied by Molecular Probes, Eugene, Oreg.) for 20 min. Comets were visualized at 330× magnification and DNA damage was assessed using the tail moment parameter (i.e. the distance between the barycenter of the head and the tail of the comet multiplied by the percentage DNA in the tail region). A minimum of 50 cell comets were analyzed for each sample, using Comet Assay χ v4.2 image analysis software, and the values presented as average tail moments for the entire cell population.
The reactive nature of the latter species makes its detection very difficult. However, the induction of DNA damage (i.e. DNA alkylation) represents evidence of its formation and fleeting presence.

[6] = biological target: T1, EGFR autophosphorylation in DU145 cells (Homo sapiens, UniProt P00533); experiment: EGFR phosphorylation assay, whole cell (Western blot); type: cell-based
T1 construct: endogenous in cells; host or cells: DU145
T1 sequence (P00533 25-1210): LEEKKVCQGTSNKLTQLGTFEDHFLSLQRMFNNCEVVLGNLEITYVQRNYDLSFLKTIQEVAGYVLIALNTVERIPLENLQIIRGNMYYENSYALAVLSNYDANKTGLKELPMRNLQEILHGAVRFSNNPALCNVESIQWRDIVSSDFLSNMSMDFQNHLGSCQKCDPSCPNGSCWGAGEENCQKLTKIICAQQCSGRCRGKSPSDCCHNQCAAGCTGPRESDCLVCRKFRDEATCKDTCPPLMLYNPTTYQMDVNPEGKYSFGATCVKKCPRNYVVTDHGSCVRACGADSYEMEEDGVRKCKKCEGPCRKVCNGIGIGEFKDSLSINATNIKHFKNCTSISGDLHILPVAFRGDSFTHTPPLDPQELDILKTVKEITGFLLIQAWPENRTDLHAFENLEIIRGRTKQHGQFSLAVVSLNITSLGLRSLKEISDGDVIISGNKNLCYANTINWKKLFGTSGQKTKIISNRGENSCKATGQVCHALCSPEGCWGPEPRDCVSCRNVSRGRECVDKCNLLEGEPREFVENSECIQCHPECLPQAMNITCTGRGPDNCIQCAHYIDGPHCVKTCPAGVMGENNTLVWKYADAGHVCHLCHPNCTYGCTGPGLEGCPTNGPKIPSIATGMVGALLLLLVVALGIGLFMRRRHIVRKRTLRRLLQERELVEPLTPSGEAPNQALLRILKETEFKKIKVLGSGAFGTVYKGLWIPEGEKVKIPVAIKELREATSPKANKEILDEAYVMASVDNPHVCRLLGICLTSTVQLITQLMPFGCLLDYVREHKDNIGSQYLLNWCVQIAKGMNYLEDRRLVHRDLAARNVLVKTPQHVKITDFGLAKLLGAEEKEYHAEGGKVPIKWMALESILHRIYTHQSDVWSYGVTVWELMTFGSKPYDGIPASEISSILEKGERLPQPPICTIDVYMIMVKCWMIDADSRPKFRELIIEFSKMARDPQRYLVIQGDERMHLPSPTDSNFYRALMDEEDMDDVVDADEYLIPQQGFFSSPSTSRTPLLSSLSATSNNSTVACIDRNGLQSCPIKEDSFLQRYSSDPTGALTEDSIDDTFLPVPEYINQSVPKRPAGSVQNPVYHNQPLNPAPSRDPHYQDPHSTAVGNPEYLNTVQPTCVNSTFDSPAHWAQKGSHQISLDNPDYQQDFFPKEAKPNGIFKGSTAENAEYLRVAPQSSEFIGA
Description: EGFR Phosphorylation Assay: DU145 cells (1×10^6) were preincubated in a six-well plate using 10% serum at 37° C. over a period of 24 h followed by a starving period of 24 h. The cells where then exposed to a dose range of each drug over a period of 2 h and subsequently treated with 50 ng/ml of EGF for 20 min at 37° C. The cells were washed with PBS and resuspended in cold lysis buffer [50 mmol/L Tris-HCl (pH 7.5), 150 mmol/L NaCl, 1% NP40, 1 mmol/L EDTA, 5 mmol/L NaF, 1 mmol/L Na3VO4, protease inhibitor tablet (Roche Biochemicals, Laval, Quebec, Canada)]. The lysates were kept on ice for 30 min and collected by centrifugation at 10,000 rpm for 20 min at 4° C. The concentrations of protein were determined using the Bio-Rad protein assay kit (Bio-Rad Laboratories, Hercules, Calif.). Equal amounts of protein […] were subjected to a 10% SDS-polyacrylamide gel electrophoresis (SDS-PAGE) and transferred to a polyvinylidene difluoride membrane (Millipore, Bedford, Mass.). Nonspecific binding on the membrane was minimized with a blocking buffer containing bovine serum albumin (5%) in PBS-Tween 20. The membranes were subsequently incubated with primary anti-phosphotyrosine antibody (Upstate Biotechnology, Lake Placid, N.Y.) for the detection of phosphotyrosine. The membranes were stripped and reprobed with anti-EGFR (Neomarkers, Fremont, Calif.) for determination of corresponding receptor levels. Blots were incubated with horseradish peroxidase-goat anti-mouse antibody (1:1,000 dilution; Cell Signaling Research, Beverly, Mass.), and the bands visualized with an enhanced chemiluminescence system (Amersham Pharmacia Biotech,. Little Chalfont, UK). Band intensities were measured using the SynGene GeneTools software package.
Inhibition of EGFR TK in Whole Cell Assay: DU145 cells were starved for 24 h and stimulated with EGF in the presence of the different drugs over a period of 2 h. Inhibition of autophosphorylation of EGFR was analyzed by Western blotting. The observed order of potency from this whole cell assay paralleled the one previously observed with ELISA. […]

[7] = system: DU145; experiment: Growth inhibition assay (SRB), DU145; settings: Homo sapiens, DU-145, 144 h, read-out: IC50 (x ± SD)
Description: as §1

[8] = system: LNCaP-EGFR; experiment: Growth inhibition assay (SRB), LNCaP-EGFR; settings: 144 h, read-out: IC50 (x ± SD)
Description: as §1

[9] = biological target: T2, EGFR tyrosine kinase (Homo sapiens, UniProt P00533); experiment: EGFR kinase enzyme assay (ELISA, PGT phosphorylation); type: biochemical; settings: for IC50: 8 minute exposure, PGT substrate, read-out: IC50, EGFR TK inhibition
T2 construct: purchased
T2 sequence (P00533 25-1210): as above
Description: EGFR Kinase Enzyme Assay: The EGFR kinase assay was performed following a known procedure. Briefly, Nunc MaxiSorp (Nalge Nunc International, Rochester, N.Y., USA) 96-well plates were incubated overnight at 37° C. with 100 μL/well of […] poly(L-glutamic acid-L-tyrosine, 4:1) PGT in PBS. Excess PGT was removed and the plates were washed three times with wash buffer (0.1% Tween-20 in PBS). The kinase reaction was performed using commercially available isolated EGFR (4.5 ng/well). The compound was added and phosphorylation was initiated by the addition of 20 μL/well of ATP (50 μM). After 8 min at room temperature with constant shaking, the reaction was terminated by aspiration of the reaction mixture and rinsing of the plates (four times) with wash buffer. Phosphorylated PGT was detected following a 25 min incubation with 50 μL/well of horseradish peroxidase-conjugated PY20 anti-phosphotyrosine antibody (Santa Cruz Biotechnology, Santa Cruz, Calif., USA) diluted to […] in blocking buffer (3% bovine serum albumin and 0.05% Tween-20 in PBS). The antibody was removed by aspiration and the plates washed four times with wash buffer. The signals were developed by the addition of 50 μL/well of 3,3′,5,5′-tetramethylbenzidine peroxidase substrate (Kirkegaard and Perry Laboratories, Gaithersberg, Md., USA). Following blue color development, H2SO4 (50 μL; 0.09 M) was added per well to stop the reaction. The plates were read at 450 nm using a Bio-Rad ELISA reader (model 2550; Bio-Rad, Hercules, Calif., USA).
Inhibition of EGFR TK: The EGFR TK inhibitory activity of JDF12 and its metabolite JDF04R was tested in a short 8 minute exposure to an ELISA assay. The assay was based on the inhibition of phosphorylation of poly(L-glutamic acid-L-tyrosine, 4:1) (PGT) by EGFR tyrosine kinase. […] As expected, the EGFR TK-inhibitory activity of MTZ was negligible (FIG. 1).

[10] = system: DU145 cells; experiment: Annexin V binding analysis (apoptosis); type: cell-based, human; settings: 25 μM, 48 h exposure
Description: Annexin V binding Analysis: Cells were pre-incubated in 6-well plates until confluence and then exposed to a dose range of each drug over a period 48 h. The cells were subsequently harvested and incubated with annexin V-FITC and propidium iodide (PI) using the apoptosis Detection Kit (BD Bioscience Pharmingen, USA) and the supplier's protocol. Annexin V-FITC and PI binding were analyzed using a Becton-Dickinson FACScan. Data were collected using logarithmic amplification of both the FL1 (FITC) and FL2 (PI) channels. Quadrant analysis of coordinate dot plots was performed with CellQuest software.
Induction of Apoptosis: Annexin V-FITC (FL1-H) and PI (FL2-H) staining (detected by flow cytometry) was used to distinguish viable (PI-/FITC−), early apoptotic (PI-/FITC+), late apoptotic (PI+/FITC+) and necrotic (PI+/FITC−) cells. […] JDF04R, Iressa and MTZ however, induced only barely detectable levels of apoptosis (<10%). The results are indicative that the combined EGFR TK inhibitory and DNA damaging properties of JDF12 can induce more cell apoptosis than observed with a single-function drug (e.g. Iressa and MTZ) alone (FIG. 7a-c).

[11] = system: DU145, LNCaP, LNCaPEGFR, and LNCaPerb2 cell lines; experiment: Growth inhibition assay (SRB), comparisons over all four cell lines; type: cell-based
Excerpt: Each point represents the average of at least two independent experiments run in triplicate.

[12] = listed as Mitozolomide, 100 mg/kg

Compound | Vital Sign, Day 1 [2] | Vital Sign, Day 3 [2] | Vital Sign, Day 6 [2] | Vital Sign, Day 8 [2] | Vital Sign, Day 10 [2] | Vital Sign, Day 16 [2] | toxicity at 100 mg/kg ([2]; CD-1 mice, 100 mg/kg) | IC50 [3] | IC50 [4] | DNA damage (tail moment) ([5]; DU145 cells, 2 h exposure) | IC50 [7] | IC50 [8] | IC50 ([9]; ELISA) | further results
COc1cc2ncnc(Nc3ccc(F)c(Cl)c3)c2cc1OCCCN1CCOCC1 [Iressa] | Normal | Normal | Normal | Normal | Normal | Normal | no signs of toxicity |  |  |  |  |  |  | antitumor activity [1]: did not show significant antitumor activity
Nc1[nH]cnc1C(=O)Nc1ccc2ncnc(Nc3cccc(Cl)c3)c2c1 [JDF04R] |  |  |  |  |  |  |  | 111 ± 18.1 µM | 178 ± 13.3 µM | did not demonstrate any DNA damaging activity | 151 ± 17 µM | 119 ± 4.1 µM | 0.23 µM | inhibition of EGFR TK ([6]; DU145 cells, at concentrations as low as 6 μM): ~100%; more potent EGFR TK inhibitor than JDF12 (fold) ([9]; JDF04R vs JDF12, ELISA IC50): 2.7 fold
O=C(Nc1ccc2ncnc(Nc3cccc(Cl)c3)c2c1)c1ncn2c(=O)n(CCCl)nnc12 [JDF12] | Normal | Normal | Normal | Normal | Normal | Normal | no signs of toxicity; also recorded: minor toxicity | 13.3 ± 2.02 µM | 13.2 ± 3.88 µM | dose-dependent DNA damage | 11.3 ± 0.22 µM | 12 ± 0.57 µM | 0.62 µM | late apoptosis [10]: significant increase in late apoptosis; weight loss during the efficacy study ([1]; CD-1 mice, 100 mg/kg, FIG. 8c): No weight loss; antitumor activity ([1]; 100 mg/kg): significant antitumor activity; also recorded: superior to that of an equidose of Iressa; DNA damage, fold less than MTZ ([5]; DU145 cells, 2 h exposure): 2 fold; increased anti-proliferation potency compared to Iressa (fold) ([11]; four cell lines): 2-3 fold; increased anti-proliferation potency compared to MTZ (fold) ([11]; four cell lines): 10-16 fold; more potent than equimolar combination of MTZ with Iressa or JDF04R (fold) ([11]; four cell lines): 1.7 fold; more potent than the equieffective 2-drug combination (fold) ([11]; identical conditions): more than 1.3 fold; IC50 ([6]; DU145 cells, EGF stimulated, 2 h drug exposure): 12 µM; potency less than that of JDF04R (fold) ([6]; DU145 whole cell assay): approximately 2 fold; MTD at 14 days ([2]; male, CD-1, mouse, in vivo, mice, weight loss over a 14-day period, two animals per group, read-out: maximum tolerated dose): 100 mg/kg
NC(=O)c1ncn2c(=O)n(CCCl)nnc12 [MTZ, 8-carbamoyl-3-(2-chloroethyl)imidazo[5,1-d]-1,2,3,5-tetrazin-4(3H)-one] | Normal | Normal |  |  |  |  | toxic at this dose | 142 ± 8.93 µM | 150 ± 7.92 µM |  | 179 ± 21.1 µM | 176 ± 6.51 µM |  | level of DNA damage, fold higher than JDF12 [5]: approximately 2 fold; Vital Sign, Day 6 [2, 12]: Weight loss > 20% (1 mouse); also recorded: Death (1 mouse); also recorded: (BCS = 2); Vital Sign, Day 8 [2, 12]: (BCS = 2); also recorded: Weight loss > 20% (1 mouse); Vital Sign, Day 10 [2, 12]: (BCS = 2); also recorded: Weight loss > 20% (1 mouse); Vital Sign, Day 16 [2, 12]: (BCS = 2); also recorded: All Mice Thin; also recorded: Death (3 mice); overall body condition score (BCS) ([2]; CD-1 mice, 100 mg/kg, 6-10 days after initiating treatment): 2; EGFR TK-inhibitory activity ([9]; ELISA, FIG. 1): negligible
